Assay results: paper PMC11621109, “Increasing sustainability and reproducibility of in vitro toxicology applications: serum-free cultivation of HepG2 cells” (Frontiers in Toxicology, 2024)
*1 amine or outer side, *2 acyl side, *3 side chain or, on linkers, in order; H or OH if unused. Where a SMILES comes first, the peptide text is derived from it. Bridges are numbered along the chain shown (N, C = ends). Roman numbers before positions name the chains, in order. [ ]: non-standard residue; d: D form. Actinocin(9to1) = Cc1c2oc3c(C)ccc(C(=O)[*:1])c3nc-2c(C(=O)[*:2])c(N)c1=O; NMeV = CN[C@H](C(=O)O)C(C)C; Sar = CNCC(=O)O

What was measured:
Format in all cases: cell-based, human
[1] = system: HIF1-alpha (oxidative stress marker); experiment: Cellular fingerprint assay (Luminex): HIF-1-alpha; conditions: 24 h
Method: (§1) To measure intracellular drug response markers, HepG2 cells cultivated in standard medium containing FBS, Advanced DMEM/F12 or TCM® Serum Replacement were seeded in 384-well plates and incubated for 24 h. After incubation, cells were treated with selected MIP-DILI compounds or negative controls in a three-fold dilution series performed in triplicates using the Tecan 300e Dispenser ([Dragovic et al., 2016]). Additionally, cells were treated with assay specific control substances (see Supplementary Table S2). Treatment was performed for 24 h. After treatment, media was carefully aspirated und cells were lysed by adding 40 µL lysis buffer (Supplementary Table S3) to each well. The plates were incubated for 30 min at 4°C and either stored at −80°C or used immediately.
(§2) Intracellular drug response markers were assessed using the Luminex technology. Color-coded beads from NMI specific for one analyte each were used to qualify and quantify p-serin 10 of Histon H3 (cell division marker), LC3B (autophagy marker), PARP (cell death/apoptosis marker), HSP70 (stress response marker), p-serin 2/5 of RNA-Polymerase II (protein transcription marker), p-serin 422 of EIF4B (protein synthesis marker) and HIF1-alpha (oxidative stress marker).
(§3) For hybridization, 25 μL cell lysate of each sample was transferred to a fresh 384-well plate. 25 μL prepared bead mix and 25 µL assay buffer were added and the plate was sealed. Plates were incubated for 16–20 h at 4°C and 600 rpm. The TS Pro thermal plate shaker from CellMedia was used for all incubation steps.
(§4) After incubation the plates were washed and successively incubated with 15 µL detection antibody (1 h, RT, 650 rpm) and 15 µL streptavidin, R-phycoerythrin conjugate (SAPE; 45 min, RT, 650 rpm). After each step, the plates were washed three times with wash buffer. Before measurement, 90 µL assay buffer was added to each well and the plates were incubated for 10 min at RT and 700 rpm. Measurement was performed using the Luminex™ FlexMAP 3D from ThermoFisher.

[2] = system: PARP (cell death/apoptosis marker); experiment: Cellular fingerprint assay (Luminex): PARP; conditions: 24 h
Method: as §1, §2, §3, §4

[3] = system: HSP70 (stress response marker); experiment: Cellular fingerprint assay (Luminex): HSP70; conditions: 24 h
Method: as §1, §2, §3, §4

p-serin 422 of EIF4B = experiment: Cellular fingerprint assay (Luminex): EIF4B; conditions: 24 h; all culture conditions (amiodarone: highest concentration)
Method: as §1, §2
(§5) For hybridization, 25 μL cell lysate of each sample was transferred to a fresh 384-well plate. […]

[4] = system: p-serin 2/5 of RNA-Polymerase II; experiment: Cellular fingerprint assay (Luminex): RNA Pol II; conditions: 24 h
Method: as §1, §2, §3, §4

LC3B (autophagy marker) = experiment: Cellular fingerprint assay (Luminex): LC3B; conditions: 24 h
Method: as §1, §2, §5

[5] = system: GSH content of HepG2 cells; experiment: GSH-Glo glutathione assay (oxidative stress); conditions: 24 h
Method: To assess oxidative stress in cells in response to compound treatment, the GSH-Glo™ Glutathione Assay from Promega was used according to manufacturer’s instructions (V6912). HepG2 cells cultivated in standard medium containing FBS, Advanced DMEM/F12 or TCM® Serum Replacement were seeded in 384-well plates, incubated for 24 h, and subsequently treated with the MIP-DILI reference compounds, negative controls, or internal controls in a three-fold dilution series performed in triplicates using the Tecan 300e Dispenser ([Dragovic et al., 2016]). Treatment was performed for 24 h.
Assay reagents and plates were first equilibrated to room temperature. GSH-Glo™ Reagent 1x was obtained by diluting Luciferin-NT substrate and Glutathione S-Transferase 1:100 in GSH-Glo™ Reaction Buffer. Luciferin Detection reagent was dissolved in Reconstitution Buffer with Esterase.
The medium was aspirated, GSH-Glo™ Reagent 1x was added to the cells and plates were shaken for 2 min and subsequently incubated for 30 min at room temperature protected from light. Afterwards, reconstituted Luciferin Detection Reagent was added, and cells were again shaken for 2 min before incubation for 15 min at room temperature in the dark. Luminescence was measured using the Varioskan Plate Reader from Thermo Fisher.

HepG2 cells [6] = experiment: Mitochondrial toxicity assay (Glucose/Galactose assay); conditions: HepG2 cultured in Advanced DMEM/F12; 2 h treatment
Method: To assess mitochondrial toxicity, the Glucose/Galactose Assay was used. HepG2 cells cultivated in standard medium containing FBS, Advanced DMEM/F12 or TCM® Serum Replacement were seeded in 384-well plates and incubated for 48 h. Cells were washed once, and subsequently switched to DMEM (ThermoFisher, 11966025) supplemented with sodium pyruvate, HEPES and either 25 mM D-glucose or 10 mM D-galactose without FBS to avoid residual glucose. Cells were pre-incubated for 4 h before treatment with the MIP-DILI reference compounds, negative controls or internal controls ([Dragovic et al., 2016]). Treatment was performed in a three-fold dilution series in triplicates using the Tecan 300e Dispenser. Cells were treated for 2 h, and the read-out was performed by measuring cell viability using the CellTiter-Glo® reagent as described previously. IC50 values were obtained from dose response curves in GraphPad Prism using a log(inhibitor) vs. response model (variable slope, four parameters, bottom constraint = 0). Mitochondrial toxicity was assessed by calculating the IC50Glc/IC50Gal ratio and the threshold for risk for mitochondrial toxicity was set at >2.

HepG2 cells [7] = experiment: Cellular fingerprint assay: overall marker response / cell death; conditions: 24 h
Method: as §1, §2, §5

[8] = all culture conditions (amiodarone: highest concentration)
[9] = highest concentration, across all media
[10] = comparable results for all culture conditions

With `CC(=O)N(O)CCCCCNC(=O)CCC(=O)N(O)CCCCCNC(=O)CCC(=O)N(O)CCCCCN` [deferoxamine, Deferoxamin Mesylat] the HIF-1-alpha levels ([1]; Advanced DMEM/F12, treated vs. untreated cells) was “no significant increase in HIF-1-alpha levels”, the HIF-1-alpha levels ([1]; TCM) was “elevated HIF-1-alpha levels” and the HIF-1-alpha levels ([1]; standard medium) was “elevated HIF-1-alpha levels”. The PARP level ([2]; serum-free media) was “not observed” and the PARP level ([2]; standard medium) was “increased PARP level”.
In the case of `COC1=C2C[C@@H](C)C[C@H](OC)[C@H](O)[C@@H](C)/C=C(\C)[C@H](OC(N)=O)[C@@H](OC)/C=C\C=C(/C)C(=O)NC(=CC1=O)C2=O` [geldanamycin, Geldanamycin], the “fold change (response, Figure 7B)” value ([3]; Advanced DMEM/F12) is reported as 20.6, the “fold change (response, Figure 7B)” value ([3]; TCM) is reported as 8.7 and the “fold change (response, Figure 7B)” value ([3]; standard medium) is reported as 7.4.
With `CCCCc1oc2ccccc2c1C(=O)c1cc(I)c(OCCN(CC)CC)c(I)c1` [Amiodarone] the EIF4B levels (p-serin 422 of EIF4B) was “decrease”, the “RNA Pol II levels” value [4, 8] was “decrease” and the PARP levels [2, 9] was “elevated PARP levels”. The LC3B levels (LC3B (autophagy marker); second highest concentration, similar in all conditions) was “elevated LC3B levels” and the HSP70 levels [3, 9] was “decrease”.
For `O=C1CC2(CCCC2)CC(=O)N1CCCCN1CCN(c2ncccn2)CC1` [Buspirone], the “changes in GSH” value [5, 10] was “viability dependent changes in GSH”.
With `O=C(O)Cc1ccccc1Nc1c(Cl)cccc1Cl` [Diclofenac] the “changes in GSH” value [5, 10] was “viability dependent changes in GSH”.
For `CO/C1=C\C(C)=C\[C@@H](C)[C@@H](O)[C@@H](C)C/C(C)=C/C=C/[C@H](OC)[C@@H]([C@@H](C)[C@@H](O)[C@H](C)[C@@]2(O)C[C@@H](O)[C@H](C)[C@@H](C(C)C)O2)OC1=O` [bafilomycin, Bafilomycin A1], the LC3B levels (LC3B (autophagy marker); similar response in all culture conditions) was “strong increase in LC3B levels”.
For `CCCCS(=N)(=O)CCC(N)C(=O)O` (stereo not shown) [Buthionine sulfoximine (BSO), Buthionine sulfoximine], the “changes in GSH” value ([5]; independently from viability, less profound in serum-free media) was “strong decrease in GSH”.
In the case of `CC(=O)O[C@H]1C(=O)[C@@]2(C)[C@H]([C@H](OC(=O)c3ccccc3)[C@]3(O)C[C@H](OC(=O)[C@H](O)[C@@H](NC(=O)c4ccccc4)c4ccccc4)C(C)=C1C3(C)C)[C@]1(OC(C)=O)CO[C@@H]1C[C@@H]2O` [Paclitaxel], the “changes in GSH” value ([5]; at high concentrations, increase significantly lower in both serum-free media) is reported as “increase in GSH”.
With `C1CCC(C(CC2CCCCN2)C2CCCCC2)CC1` (stereo not shown) [Perhexiline] the “changes in GSH” value [5, 10] was “viability dependent changes in GSH”, the “mitochondrial toxicity call (IC50Glc/IC50Gal fold change vs two-fold threshold)” value (HepG2 cells [6]) was “identified as a potential mitochondrial toxin” and the “concentrations at which cell death occurred” value (HepG2 cells [7]; multiple markers drastically reduced or below detection limit) was at least 16.7 µM. The PARP level ([2]; Advanced DMEM/F12 only) was “significant increase in PARP”.
For `Cc1c2oc3c(C)ccc(C(=O)N[C@@H]4C(=O)N[C@H](C(C)C)C(=O)N5CCC[C@H]5C(=O)N(C)CC(=O)N(C)[C@@H](C(C)C)C(=O)O[C@@H]4C)c3nc-2c(C(=O)N[C@@H]2C(=O)N[C@H](C(C)C)C(=O)N3CCC[C@H]3C(=O)N(C)CC(=O)N(C)[C@@H](C(C)C)C(=O)O[C@@H]2C)c(N)c1=O` [actinomycin D, Actinomycin D] (I: T[dV]P[Sar][NMeV] / II: T[dV]P[Sar][NMeV]; ester I:1-I:C, II:1-II:C; linker I:N-II:N via Actinocin(9to1)), the EIF4B levels (p-serin 422 of EIF4B) was “significant decrease”, the “RNA Pol II levels” value [4, 8] was “significant decrease” and the “fold change (response, Figure 7C)” value ([2]; Advanced DMEM/F12) was 11.3. For the same compound, the “fold change (response, Figure 7C)” value ([2]; TCM) was 6.6 and the “fold change (response, Figure 7C)” value ([2]; standard medium) was 3.1.
For `C/C=C(/C)C(=O)O[C@H]1C(C)=C2[C@H]([C@@H]1OC(=O)CCCCCCC)[C@@](C)(OC(C)=O)C[C@H](OC(=O)CCC)[C@@]1(O)[C@H]2OC(=O)[C@@]1(C)O` [Thapsigargin], the “changes in GSH” value ([5]; at low concentrations, increase significantly lower in both serum-free media) was “increase in GSH”.
For `CN(C)C(=N)N=C(N)N` [Metformin], the “elevation of intracellular drug response markers” value (HepG2 cells [7]; all seven markers) was “did not result in elevated markers” and the “RNA Pol II levels” value ([4]; highest concentration tested, Advanced DMEM/F12) was “slight decrease”.
For `CCc1nn(CCCN2CCN(c3cccc(Cl)c3)CC2)c(=O)n1CCOc1ccccc1` [Nefazodone], the “changes in GSH” value [5, 10] was “viability dependent changes in GSH”.
